Measured values from article PMC8071544, “Synthesis and Bioactivities of Marine Pyran-Isoindolone Derivatives as Potential Antithrombotic Agents” (Marine Drugs, 2021).

Key:
[1] = biological target: T1, pro-uPA and plasminogen (Homo sapiens, UniProt P00747); test: Fibrinolytic activity in vitro (reciprocal activation of pro-uPA and plasminogen, urokinase activity by chromogenic substrate S-2444); assay type: biochemical; details: for EC50 (fibrinolytic activity): in vitro, slope of kinetic curve A405 nm, S-2444, mean of two independent experiments; for fibrinolytic activity (in words): compared with FGFC1
T1 construct: purchased Sigma Aldrich (China)
T1 sequence (P00747 20-810 limits assumed): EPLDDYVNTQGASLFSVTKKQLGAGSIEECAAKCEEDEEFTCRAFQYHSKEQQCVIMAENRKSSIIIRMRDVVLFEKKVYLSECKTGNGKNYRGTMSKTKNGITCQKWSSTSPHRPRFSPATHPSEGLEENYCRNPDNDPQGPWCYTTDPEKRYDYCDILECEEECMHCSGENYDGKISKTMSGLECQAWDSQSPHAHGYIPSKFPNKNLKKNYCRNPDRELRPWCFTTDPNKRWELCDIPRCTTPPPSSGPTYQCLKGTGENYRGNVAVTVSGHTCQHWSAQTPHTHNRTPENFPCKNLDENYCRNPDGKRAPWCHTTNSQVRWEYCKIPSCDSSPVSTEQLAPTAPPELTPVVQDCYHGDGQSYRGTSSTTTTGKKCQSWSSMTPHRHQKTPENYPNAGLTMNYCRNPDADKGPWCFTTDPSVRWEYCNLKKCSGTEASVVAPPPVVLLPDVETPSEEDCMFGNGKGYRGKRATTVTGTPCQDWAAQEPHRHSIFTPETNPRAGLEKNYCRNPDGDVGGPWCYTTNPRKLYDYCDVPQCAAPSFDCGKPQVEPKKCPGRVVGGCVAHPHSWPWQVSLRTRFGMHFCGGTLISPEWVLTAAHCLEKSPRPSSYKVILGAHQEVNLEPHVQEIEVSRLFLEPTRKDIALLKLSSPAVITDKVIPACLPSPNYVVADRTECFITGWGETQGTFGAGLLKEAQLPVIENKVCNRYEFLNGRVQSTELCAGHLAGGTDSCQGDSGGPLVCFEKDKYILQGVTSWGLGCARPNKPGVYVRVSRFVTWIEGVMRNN
Description: To evaluate the antithrombotic effect, all the synthesized FGFC1 derivatives were tested for their fibrinolytic activities in vitro. Fibrinolytic activity of each compound was expressed as 50% effective concentration (EC50), and FGFC1 was used as a positive control. The reciprocal activation of pro-uPA catalyzed plasminogen, which was measured based on urokinase activity by a chromogenic substrate S-2444. EC50 was calculated with the slope of kinetic curve of enzymatic reaction based on the reciprocal activation of pro-uPA and plasminogen (Figure 1 and Figure 2). The effect of introducing different hydrophobic moieties/groups to C-2, C-2′ and C-1′′ positions of FGFC1 was investigated by replacement of the protons on C2-OH/C2′-OH moieties and C1′′-COOH position, with methyl, ethyl, propyl, and bromo-substituted benzyl halide groups to yield derivatives F1–F7 (purity > 98% by HPLC analysis), which presented different urokinase activities and reciprocal activation of Pro-uPA-catalyzed plasminogen in vitro.
The fibrinolytic activities of compounds FGFC1 and derivatives F1–F7 were evaluated by plasmin method. Tris-HCl buffer solution (100 mmol/L, NaCl, pH 7.4), plasminogen (plg), BSA, and S-2444 were used as substrates. Derivatives F1–F7 dissolved in 0.05 mol/L Tris-HCl buffer containing NaCl (100 mmol/L) at pH 7.4 and the BSA used as a substrate.The concentrations of plg, BSA and S-2444 were 1.5 μmol/L, 5 μmol/L and 4 nmol/L, respectively. They were prepared in a 96-well microplate. After the predetermined sample solutions (compounds FGFC1 and F1–F7) were added, pro-uPA (20 μmol/L) was added into the 96-well microplate. The microplate was then cultivated at 37 °C for 60 min. The continuous variation trend of absorbance was determined for evaluation of fibrinolytic activity on the slope of the plots of A405 nm within 150 min. In the blank group, an equal volume of Tris-HCl solution was used as a blank control. All sample solutions were prepared by adding a small amount of DMSO (<5%, v/v) solution to dissolve the derivatives.

[2] = system: IL-1; test: IL-1 ELISA assay on HeLa cells; assay type: cell-based, human; details: Figure 2C, compared with blank and FGFC1
Description: (§1) The cytotoxicity of FGFC1 and derivative F6 on HeLa cell lines was screened by MTT assay. […] The introduction of substituted benzyl halide to the C-2, C-2′ and C-1″ position of FGFC1 decreased cytotoxicity, which increased with increasing concentration (0.25, 0.5, 1.0 mg/mL). Moreover, to evaluate the possible apoptosis of HeLa cells induced by F6, Fas/APO-1 (a type of cell-surface NGF/TNF receptor in cancer cell) assay was carried out (Figure 2B). To evaluate the immunogenic (inflammation) property, interleukin (IL-1) levels of derivative F6 was also tested by the IL-1 assays (Figure 2C). […] This meant that the ability of F6 to induce apoptosis was weaker than that of FGFC1. […] According to Figure 2B and Figure 2C, the negative effect of F6 on tissue cell was weaker than that of FGFC1.
The cell culture method on the 96-well plate is in accordance with that in the MTT assay. The Elisa kit assay based on IL-1 of HeLa cells was consistent with the Fas/Apo-1 Elisa kit assay.

[3] = system: HeLa cells; test: MTT cytotoxicity assay on HeLa cells; assay type: cell-based, human; details: 0.25, 0.5, 1.0 mg/mL, Figure 2A
Description: as §1
HeLa (human cervical carcinoma) cells were incubated in medium (10% fetal bovine serum, 1% penicillin, 1% streptomycin) at 37 °C with 95% air and 5% CO2. Cells were passaged every 2–3 d and select exponential growth cells were used for further experiments.
The cell growth inhibitory activity of FGFC1 and derivative F6 on HeLa cell lines were determined by the MTT (3-(4,5-dimethylthiazol-2yl)-2,5-diphenyl tetrazolium bromide) assay as we previously reported. In addition, an equal volume of DMEM medium was added to the blank group.

[4] = system: Fas/Apo-1; test: Fas/Apo-1 ELISA assay on HeLa cells; assay type: cell-based, human; details: Figure 2B, compared with blank and FGFC1
Description: as §1
Fas/Apo-1 assay was carried out according to the manufacturer’s protocol. A blank control group was set up. It was not added with the samples (FGFC1 and derivative F6) and the enzyme standard reagent, and the other steps were the same. The standard curve group and the sample group were tested. On the 96-well plate, the standard curve group was supplemented with 50 μL of the standard. […] After the addition of stop solution to reaction wells, the absorbance was recorded at OD 450 nm on an Enzyme-Labeled (microplate reader) Instrument after 15 min.

COC(=O)[C@@H](CCCN1Cc2c(cc(OC)c3c2O[C@](C)(CC/C=C(\C)CCC=C(C)C)[C@H](O)C3)C1=O)N1Cc2c(cc(OC)c3c2O[C@](C)(CC/C=C(\C)CCC=C(C)C)[C@H](O)C3)C1=O [F1]
EC50 (fibrinolytic activity) [1]: 59.7 µM

CCOC(=O)[C@@H](CCCN1Cc2c(cc(OCC)c3c2O[C@](C)(CC/C=C(\C)CCC=C(C)C)[C@H](O)C3)C1=O)N1Cc2c(cc(OCC)c3c2O[C@](C)(CC/C=C(\C)CCC=C(C)C)[C@H](O)C3)C1=O [F2]
EC50 (fibrinolytic activity) [1]: 87.1 µM

CCCOC(=O)[C@@H](CCCN1Cc2c(cc(OCCC)c3c2O[C@](C)(CC/C=C(\C)CCC=C(C)C)[C@H](O)C3)C1=O)N1Cc2c(cc(OCCC)c3c2O[C@](C)(CC/C=C(\C)CCC=C(C)C)[C@H](O)C3)C1=O [F3]
EC50 (fibrinolytic activity) [1]: 66.6 µM

CC(C)=CCC/C(C)=C/CC[C@@]1(C)Oc2c(c(OCc3ccc(C#N)cc3)cc3c2CN(CCC[C@H](C(=O)OCc2ccc(C#N)cc2)N2Cc4c(cc(OCc5ccc(C#N)cc5)c5c4O[C@](C)(CC/C=C(\C)CCC=C(C)C)[C@H](O)C5)C2=O)C3=O)C[C@H]1O [F4]
EC50 (fibrinolytic activity) [1]: 82.8 µM

CC(C)=CCC/C(C)=C/CC[C@@]1(C)Oc2c(c(OCc3ccc(OC(F)(F)F)cc3)cc3c2CN(CCC[C@H](C(=O)OCc2ccc(OC(F)(F)F)cc2)N2Cc4c(cc(OCc5ccc(OC(F)(F)F)cc5)c5c4O[C@](C)(CC/C=C(\C)CCC=C(C)C)[C@H](O)C5)C2=O)C3=O)C[C@H]1O [F5]
fibrinolytic activity (in words) [1]: markedly decreased the fibrinolytic activity | EC50 (fibrinolytic activity) [1]: 133.3 µM

CC(C)=CCC/C(C)=C/CC[C@@]1(C)Oc2c(c(OCc3ccc(Br)cc3)cc3c2CN(CCC[C@H](C(=O)OCc2ccc(Br)cc2)N2Cc4c(cc(OCc5ccc(Br)cc5)c5c4O[C@](C)(CC/C=C(\C)CCC=C(C)C)[C@H](O)C5)C2=O)C3=O)C[C@H]1O [F6]
expression level of IL-1 [2]: obviously higher than that of blank, but it was less than that of FGFC1 | cytotoxicity on HeLa cell lines [3]: moderate cytotoxicity | EC50 (fibrinolytic activity) [1]: 42.3 µM | fibrinolytic activity relative to FGFC1 ([1]; ratio of EC50 vs FGFC1): 2.72 fold | expression level of Fas [4]: remarkably higher than that of the blank, but it was less than that of FGFC1

CC(C)=CCC/C(C)=C/CC[C@@]1(C)Oc2c(c(OCc3ccccc3Br)cc3c2CN(CCC[C@H](C(=O)OCc2ccccc2Br)N2Cc4c(cc(OCc5ccccc5Br)c5c4O[C@](C)(CC/C=C(\C)CCC=C(C)C)[C@H](O)C5)C2=O)C3=O)C[C@H]1O [F7]
fibrinolytic activity (in words) [1]: retained fibrinolytic activity | EC50 (fibrinolytic activity) [1]: 119.6 µM

CC(C)=CCC/C(C)=C/CC[C@@]1(C)Oc2c(c(O)cc3c2CN(CCC[C@H](C(=O)O)N2Cc4c(cc(O)c5c4O[C@](C)(CC/C=C(\C)CCC=C(C)C)[C@H](O)C5)C2=O)C3=O)C[C@H]1O [FGFC1, 2,5-Bis-[8-(4,8-dimethyl-nona-3,7-dienyl)-5,7-dihydroxy-8-methyl-3-keto-1,2,7,8-teraahydro-6H-pyran[a]isoindol-2-yl]-pentanoic acid, reference compound]
cytotoxicity on HeLa cell lines [3]: moderate cytotoxicity | EC50 (fibrinolytic activity) [1]: 115.0 µM
